Measured values taken from the RepoRT retention time repository (doi:10.1016/j.foodchem.2021.129757).

How the values were obtained:
Settings in all cases: stereoisomer not certain
[1] = RP, 100 × 0.5 mm, 2.7 µm, 45 °C, 0.015 mL/min, estimated dead time 0.83 min; A: water + 0.9% formic acid; B: acetonitrile + 0.9% formic acid; gradient (min/%B) 0/1 0.5/1 4/95 4.5/1 5/1
[2] = RP, 50 × 0.5 mm, 2.7 µm, 35 °C, 0.01 mL/min, estimated dead time 0.62 min; A: water + 0.1% formic acid, pH 3; B: acetonitrile + 0.1% formic acid, pH 3; gradient (min/%B) 0/5 12/95 14/95 16/5
[3] = RP, Phenomenex Synergi Hydro-RP, 150 × 2 mm, 4 µm, 30 °C, 0.5 mL/min, estimated dead time 0.6 min; A: water + 0.1% formic acid, pH 3; B: acetonitrile + 0.1% formic acid, pH 3; gradient (min/%B) 0/5 1/5 35/45 40/100 45/100
[4] = RP, Phenomenex Luna Omega Polar C18, 100 × 2.1 mm, 1.6 µm, 40 °C, 0.5 mL/min, estimated dead time 0.44 min; A: water + 0.5% formic acid; B: acetonitrile + 0.5% formic acid; gradient (min/%B) 0/5 3/50 3.1/100 5/100 5.1/5 7/5
[5] = RP, Phenomenex Luna C18, 150 × 4.6 mm, 3 µm, 25 °C, 0.5 mL/min, estimated dead time 3.2 min; A: water + 0.1% formic acid, pH 3; B: acetonitrile + 0.1% formic acid, pH 3; gradient (min/%B) 0/0 30/30 35/40 50/80 52/80 60/0 65/0
[6] = RP, Phenomenex Luna Omega Polar C18, 100 × 2.1 mm, 1.6 µm, 40 °C, 0.5 mL/min, estimated dead time 0.44 min; A: water + 0.1% formic acid + 10 mM ammonium formate; B: acetonitrile; gradient (min/%B) 0/5 8/20 10/100 12/100 12.1/5 14/5
[7] = RP, Waters ACQUITY UPLC HSS T3, 100 × 2.1 mm, 1.8 µm, 30 °C, 0.4 mL/min, estimated dead time 0.55 min; A: water + 0.1% formic acid, pH 3; B: acetonitrile + 0.1% formic acid, pH 3; gradient (min/%B) 0/0 2/0 15/100 22/100 22.1/0 26/0
[8] = RP, Agilent ZORBAX Eclipse XDB-C18, 100 × 2.1 mm, 1.8 µm, 50 °C, 0.4 mL/min, estimated dead time 0.55 min; A: water + 0.1% formic acid, pH 3; B: methanol + 0.1% formic acid, pH 3; gradient (min/%B) 0/2 10/100 14.5/100 14.51/2 16.5/2
[9] = RP, Waters ACQUITY UPLC BEH Shield RP18, 100 × 2.1 mm, 1.7 µm, 30 °C, 0.6 mL/min, estimated dead time 0.37 min; A: water + 0.1% formic acid, pH 3; B: acetonitrile + 0.1% formic acid, pH 3; gradient (min/%B) 0/0 2/0 7/10 22/95 22.1/0 26/0
[10] = RP, Waters ACQUITY UPLC BEH Shield RP18, 150 × 2.1 mm, 1.7 µm, 40 °C, 0.4 mL/min, estimated dead time 0.83 min; A: water + 0.1% formic acid, pH 3; B: acetonitrile + 0.1% formic acid, pH 3; gradient (min/%B) 0/0 30/50 31/100 37/100 37.1/0
[11] = RP, Agilent ZORBAX RRHD Eclipse Plus C18, 50 × 2.1 mm, 1.8 µm, 30 °C, 0.4 mL/min, estimated dead time 0.28 min; A: water + 0.1% formic acid, pH 3; B: acetonitrile + 0.1% formic acid, pH 3; gradient (min/%B) 0/1 5/10 8/25 9.1/99 10/99 12/1
[12] = RP, Agilent ZORBAX RRHD Eclipse Plus C18, 50 × 2.1 mm, 1.8 µm, 30 °C, 0.4 mL/min, estimated dead time 0.28 min; A: water + 0.1% formic acid, pH 3; B: acetonitrile + 0.1% formic acid, pH 3; gradient (min/%B) 0/1 5/10 8/25 9.1/99 10/99 12/99
[13] = RP, Agilent InfinityLab Poroshell 120 EC-C18, 100 × 3 mm, 2.7 µm, 25 °C, 0.4 mL/min, estimated dead time 1.1 min; A: water + 0.1% formic acid, pH 3; B: acetonitrile + 0.1% formic acid, pH 3; gradient (min/%B) 0/5 10/25 20/40 24/90 25/90 26/5 30/5
[14] = RP, 150 × 2.1 mm, 2.6 µm, 40 °C, 0.35 mL/min, estimated dead time 0.94 min; A: water + 0.1% formic acid, pH 3; B: acetonitrile + 0.1% formic acid, pH 3; gradient (min/%B) 0/0 1/0 12.5/100 14/100 14.2/0 15/0
[15] = RP, 150 × 2.1 mm, 2.6 µm, 40 °C, 0.35 mL/min, estimated dead time 0.94 min; A: water + 0.1% formic acid, pH 3; B: acetonitrile + 0.1% formic acid, pH 3; gradient (min/%B) 0/0 1/5 7/45 8.5/80 10.5/80 11/5 12/5
[16] = RP, Waters ACQUITY UPLC BEH C18, 100 × 2.1 mm, 1.7 µm, 65 °C, 0.4 mL/min, estimated dead time 0.55 min; A: water + 0.1% formic acid, pH 3; B: 80% acetonitrile + 20% acetone + 0.1% formic acid, pH 3; gradient (min/%B) 0/0 5/100 5.5/0 6/0
[17] = RP, Phenomenex Synergi Hydro-RP, 250 × 2 mm, 4 µm, 25 °C, 0.2 mL/min, estimated dead time 2.5 min; A: water + 0.1% formic acid, pH 3; B: acetonitrile + 0.1% formic acid, pH 3; gradient (min/%B) 0/0.5 7/0.5 12/12.5 25/16.3 47/35 48/65 50/65 50.1/0.5
[18] = RP, Waters Atlantis T3, 100 × 2.1 mm, 3 µm, 40 °C, 0.3 mL/min, estimated dead time 0.73 min; A: water + 0.1% trifluoroacetic acid, pH 2; B: acetonitrile + 0.1% trifluoroacetic acid, pH 2; gradient (min/%B) 0/10 1/10 6/40 7/50 8/50 14/70 16/80 20/10 25/10
[19] = RP, Phenomenex Kinetex EVO C18, 100 × 2.1 mm, 2.6 µm, 40 °C, 0.4 mL/min, estimated dead time 0.55 min; A: water + 0.2% formic acid; B: acetonitrile + 0.2% formic acid; gradient (min/%B) 0/5 0.5/5 7/95 8/95 8.5/5 12/5
[20] = RP, Merck LiChrospher RP-18, 250 × 4 mm, 5 µm, 35 °C, 0.3 mL/min, estimated dead time 6.7 min; A: water + 0.5% formic acid; B: acetonitrile + 0.5% formic acid; gradient (min/%B) 0/5 10/5 30/15 45/20 65/20 95/54 110/63 115/5 135/5

LC retention time [1] [min]	LC retention time [2] [min]	LC retention time [3] [min]	LC retention time [4] [min]	LC retention time [5] [min]	LC retention time [6] [min]	LC retention time [7] [min]	LC retention time [8] [min]	LC retention time [9] [min]	LC retention time [10] [min]	LC retention time [11] [min]	LC retention time [12] [min]	LC retention time [13] [min]	LC retention time [14] [min]	LC retention time [15] [min]	LC retention time [16] [min]	LC retention time [17] [min]	LC retention time [18] [min]	LC retention time [19] [min]	LC retention time [20] [min]	SMILES
2.39	4.81	17.4	2.53	27.4	8.58	9.51	5.52	13.7	15.2	8.37	8.79	10.5								O=C(O)C1OC(Oc2c(-c3ccc(O)cc3)oc3cc(O)cc(O)c3c2=O)C(O)C(O)C1O (centres undefined) [Kaempferol-3-O-glucuronide]
2.44	4.6	15.8	2.49	23	8.28	9.05	4.86	12.6	12			10.2					7.34	4.84		CC1OC(OC2C(O)C(OCCc3ccc(O)c(O)c3)OC(CO)C2OC(=O)C=Cc2ccc(O)c(O)c2)C(O)C(O)C1O (centres undefined) [Verbascoside]
3.24	4.51	27.4	3.7	42.5	9.84	11.7	7.05	16.4	24	9.19	9.29	17.6							98.9	COc1cc(-c2oc3cc(O)cc(O)c3c(=O)c2O)ccc1O [Isorhamnetin]
2.89	4.87	17.9	2.6	27.6	9.12	9.6	5.5	13.5	14.3			10.7	6.07	6.23			7.96			O=c1cc(-c2ccc(O)cc2)oc2cc(OC3OC(CO)C(O)C(O)C3O)cc(O)c12 (centres undefined) [Apigenin 7-O-glucoside]
3.13	6	25.8		41.2	9.58	11.4	6.47	15.6	21.3	9.14	9.3	16.7	7.51	7.9	2.85	50.6	10		94.8	O=C(CCc1ccc(O)cc1)c1c(O)cc(O)cc1O [Phloretin]

Further lines, the compound ahead of its results:

SMILES	LC retention time [1] [min]	LC retention time [2] [min]	LC retention time [3] [min]	LC retention time [4] [min]	LC retention time [5] [min]	LC retention time [6] [min]	LC retention time [7] [min]	LC retention time [8] [min]	LC retention time [9] [min]	LC retention time [10] [min]	LC retention time [11] [min]	LC retention time [12] [min]	LC retention time [13] [min]	LC retention time [14] [min]	LC retention time [15] [min]	LC retention time [16] [min]	LC retention time [17] [min]	LC retention time [18] [min]	LC retention time [19] [min]	LC retention time [20] [min]
O=C(O)Cc1ccc(O)cc1 [4-Hydroxyphenylacetic acid]	2.71	2.53	11.9	1.15	14.7	3.36	8.37	3.26	7.43	5.41			6.13	4.61	4.34	1.76	20.4			
COc1ccc(C2CC(=O)c3c(O)cc(O)cc3O2)cc1O (centres undefined) [Hesperetin]	3.27	6.17	26.6	3.57	42.5	9.67	11.7	6.64	15.5	21.2		9.29	17.4	7.8	8.21	2.93	51.9	10.4		
O=C(O)CCc1ccc(O)c(O)c1 [Dihydrocaffeic acid]	2.4	2.6	14.6	2.6	14.2	3.46	8.3	3.33	8.08	5.6	5.05	2.11	6.04			1.69	20.1			
O=C(O)CCc1ccc(O)cc1 [Phloretic acid]	2.32	3.41	11.7	2.19	19.9	5.01	9.17	4.09	10.4	6.46	6.75	6.26	7.93			2.09	26			
